# Entries after “also recorded” stand apart in the source; their conditions may differ.
# Columns and labels:
# [1] = test system: TNFR-Fc producing cells (CHO cell lines); experiment: Betaine in 1 L bioreactor cultures of TNFR-Fc producing CHO cells at production osmolality; assay type: cell-based, Chinese hamster
# Method: TNFR-Fc production in some CHO cell lines results in greater quantities of recombinant protein product but with lower viability than other cell lines during the final days of the run. The decreased viability correlates with increased protease activity in the culture supernatant, a result of dying cells releasing proteases into the media, which decreases stability of the final purified product. The current study was performed to determine if betaine could prolong viability at production osmolality (250-280 mOsm initial value).
# The bioreactors used for this study were stirred vessels with a 1 liter working volume, with temperature, pH and dO2 control. The medium was serum-free with bicarbonate, IGF-1 (LongR3; GroPep, Australia), intralipids and peptones added. Betaine was added to 1 L bioreactor cultures of TNFR-Fc producing cells at 0, 10, 20, 30, and 40 mM with the osmolality of each culture adjusted to 270 to 280 mOsm with an appropriate amount of NaCl. The reactors were induced to express recombinant protein on day 2 by reducing the temperature and adding butyrate to 0.5 mM. Daily samples were taken for analysis of metabolic and productivity parameters.
# The ability of induced cells to produce TNFR:Fc was not decreased in the presence of betaine.
# cell cultures = conditions: physiological osmolality, 292 mOsm/kg; cited from earlier work
compound,measurement,setting,value
C[N+](C)(C)CC(=O)O [betaine],"cell viability (viable cells as percentage of living cells over total cells, trypan blue exclusion; VCD profiles)","[1]; betaine 0, 10, 20, 30, 40 mM, serum-free medium, osmolality 270 to 280 mOsm, most noticeable after day 5 (FIG. 1)",increases cell viability; also recorded: positive effect on cell viability
same,concentration dependence of the viability effect,"[1]; betaine 10-40 mM, higher concentrations than 30 mM did not increase viability as much",titration effect up to 30 mM
same,ability of induced cells to produce TNFR:Fc,"[1]; in the presence of betaine, induced on day 2 by reduced temperature and 0.5 mM butyrate",not decreased
same,increase in percentage of secreted recombinant polypeptide having the desired conformation (native conformation and dimerized),"[1]; in the presence of betaine, measured by hydrophobic interaction chromatography (HIC) against known controls",17.7%
same,effect on cell culture growth or maximum viable cell concentration,cell cultures,no effect

# From US7829309B1, “Cell culture performance with betaine” (Immunex Corporation, priority 2002, dated 2010)
